Assay results: patent US20140134139A1, “CD34+ CELLS AND METHODS OF USE” (NORTHWESTERN UNIVERSITY, priority 2012, published 2014)

Legend:
[1] = test system: murine endothelial cells (SVEC); assay: Western blot of histone acetylation and methylation in SVEC cells; type: cell-based, mouse; settings: 1 μM BIX-01294, compared to untreated control cells
Experimental: Cell lysate from 1.5×10^7 SVEC cells was prepared using whole cell lysate buffer (50 mM Tris-HCl, 0.5% Igepal (NP-40), 150 nM NaCl). […] Equal protein loading in each lane was verified using antibodies against β-actin and changes in modified histone levels were quantified by first normalization to total H3 or H4 protein.
Therefore, murine endothelial cells (SVEC) were treated with either 1 μM BIX-01294 or staggered addition of 1 mM VPA then 500 nM 5′-Azacytidine for 48 h and histone acetylation and methylation were assessed by western blot.

SVEC cells = assay: ChIP assay of acetylated H3K9 at Oct4 and cardiomyocyte gene promoters in SVEC cells; type: cell-based, mouse; settings: p<0.05
human CD34+ cells = assay: Toxicity to human CD34+ cells; type: cell-based; settings: similar drug doses as for mouse EPCs and even 2-fold reduced levels
Experimental: In an attempt to increase their plasticity, 2.0×10^5 sorted EPCs were seeded on fibronectin coated plates then treated for 48 hours with individual or combinations of epigenetic modifying agents; 500 nM 5′-Azacytidine (5′ Aza; DNA methyltransferase inhibitor), 1 mM valproic acid (VPA; histone deacetylase inhibitor), 1 mM BIX-01294 (histone methyltransferase inhibitor). Drug dosages were verified as non-toxic by cell viability analysis (data not shown). […] All mRNA expression was normalized to 18S RNA then presented as a fold difference compared to untreated EPCs. […]
The epigenetic reprogramming by these small molecules was evaluated in human CD34+ cells to determine whether their reprogramming potential is limited to mouse EPCs or whether it can also be translated to human EPCs (bone marrow mobilized CD34+ cells), currently used in clinical trials (Losordo D W et al., Circ. Res. 109:428-436 (2011)). CD34+ cells, obtained from healthy donors and provided by Baxter healthcare, were treated or not with VPA (2.5 mM) and 5′ Aza (500 nM) and mRNA expression of pluripotency and cardiomyocyte-specific transcripts was determined. […] In order to determine enhanced functional capacity of reprogrammed CD34+ cells in the repair of post-infarct myocardium, a previously determined sub-therapeutic dose of 2.5×10^4 cells was used for post-AMI transplantation in immune-e-deficient mouse AMI model. […]

Nkx2.5 promoter = assay: Pyrosequencing methylation analysis of the Nkx2.5 promoter in SVECs; type: cell-based, mouse; settings: treated vs control SVEC cells
Lineage-Sca-1+CD31+ EPCs [2] = assay: Real-time PCR gene expression in drug-treated sorted mouse EPCs; type: cell-based
Experimental: Relative mRNA expression of target genes was normalized to the endogenous 18S control gene.
Lineage-Sca-1+CD31+ EPCs were cultured on 5 μg/mL human fibronectin coated plates in DMEM supplemented with 10% FBS and penicillin/streptomycin at 37° C. with 5% CO2. Human CD34+ cells were cultured in X-VIVO (Lonza) media supplemented with 0.5% human serum albumin, 50 ng/mL Flt3 ligand, 20 ng/mL stem cell factor, 50 ng/mL VEGF, and 10 ng/mL thrombopoietin. Either cell type was treated with VPA (2.5 mM) for 24 hours then 500 nM 5′ Aza was added to the culture media and cells remained in culture for an additional 24 hours (48 hours total). Different ranges of doses were tested with above doses being determined as the optimal doses not only for reprogramming but also for displaying minimal cellular toxicity. Further, a staggered treatment protocol, that is, contacting an EPC culture with a first epigenetic programming agent (for example, VPA) for a first period of time (for example, 24 hr), followed by contacting the EPC culture with a second epigenetic programming agent (for example, 5′-Aza) for a second period of time (for example, 24 hr) was determined to be a highly preferred protocol for reprogramming. Mouse EPCs were also cultured with 1 μM BIX-01294 for 48 hours in the same culture conditions. […]

Lineage-Sca-1+CD31+ EPCs [3] = assay: Cell viability analysis of drug-treated mouse EPCs; type: cell-based; settings: 500 nM 5′ Aza, 1 mM VPA, 1 mM BIX-01294; 48 hours; data not shown
Experimental: In an attempt to increase their plasticity, 2.0×10^5 sorted EPCs were seeded on fibronectin coated plates then treated for 48 hours with individual or combinations of epigenetic modifying agents; 500 nM 5′-Azacytidine (5′ Aza; DNA methyltransferase inhibitor), 1 mM valproic acid (VPA; histone deacetylase inhibitor), […] (histone methyltransferase inhibitor). Drug dosages were verified as non-toxic by cell viability analysis (data not shown). […] All mRNA expression was normalized to 18S RNA then presented as a fold difference compared to untreated EPCs. […] Since the treated cells express cardiomyocyte genes at basal level they may be more inclined to differentiate into mature CMCs under conditions conducive for CMC differentiation. Similar changes in gene expression were found in human CD34+ cells with the regimen of 2.5 mM VPA followed by 500 nM 5′ Aza (FIG. 2A). BIX-01294 treatment, even at reduced doses, was toxic to human CD34+ cells and was therefore not used in human cell studies.

Row | SMILES | reduction of H3K9 di-methylation [1] | acetylated H3K9 bound to cardiac-specific gene promoters (Actn2, Ryr2, TnnT2) (SVEC cells; compared to non-treated cells) | acetylated H3K9 bound to the core (CP) and regulatory promoter (RP) regions of Oct4 (SVEC cells; compared to untreated controls) | toxicity to human CD34+ cells (human CD34+ cells) | CpG methylation patterns of Nkx2.5 (Nkx2.5 promoter) | induction of cardiomyocyte-specific transcripts (Lineage-Sca-1+CD31+ EPCs [2]; real-time PCR immediately after treatment, without cardiomyocyte differentiation conditions) | Oct4 expression, fold difference compared to untreated EPCs (Lineage-Sca-1+CD31+ EPCs [2]; real-time PCR, normalized to 18S RNA, 48 hours with 1 mM BIX-01294, or 24 hours 1 mM VPA then 24 hours 500 nM 5′ Aza) | toxicity of drug dosages by cell viability analysis (Lineage-Sca-1+CD31+ EPCs [3])
1 | COc1cc2nc(N3CCCN(C)CC3)nc(NC3CCN(Cc4ccccc4)CC3)c2cc1OC [BIX-01294] | 64.3±11% | more heavily bound by acetylated H3K9 | significant increase | toxic | no significant difference | de novo induction of cardiomyocyte-specific transcripts | 9.5±2.0 fold | non-toxic
2 | CCCC(CCC)C(=O)O [VPA, valproic acid] |  |  |  |  |  |  |  | non-toxic
